Experiments:
4T1 cells = assay: Cell proliferation assay (CellTiter 96 AQueous One, MTS); format: cell-based, mouse
Source text: (§1) The next research questions revolved around asking how TGFβ is regulating eIF5A and what other proteins might be involved to completely block TGFβ-induced EMT. This led to histone deacetylase enzyme 6 (HDAC6). HDAC6 has been previously reported to be responsible for the deacetylation of eIF5A in the nucleus in order to make it readily available for hypusination and later transport out in the cytoplasm for functioning as a translation factor. To determine if it were possible to further increase the efficacy or potency of GC7, the inventors co-treated with Tubastatin A (an HDAC6 inhibitor) in 4T1 and 67NR cells as well as MDA-MB-468 cells which initially were not very sensitive to GC7. Triple negative human breast cancer cell line, […], was also used to see if another cell line representative of this breast cancer subtype was sensitive towards DHPS and HDAC6 inhibition. (FIGS. 5A and 5B). Here, are shown cell viability graphs for these four cell lines pretreated with GC7 at 1 μM and after 12 hours were exposed to various concentrations of Tubastatin A (TubA) ranging from 0.1 nM to 100 μM. […] MDA-MB-468 and BT549 cells remained to be insensitive to TubA with or without GC7 pretreatment (FIG. 5A). Next, the inventors performed the opposite cell viability experiment in which these four cell lines were pretreated with TubA at 1 μM and then exposed these cells to various concentrations of GC7 ranging from 0.1 nM to 1 mM. […] 4T1 cells were treated with TubA at 10 μM, GC7 at 10 μM or both drugs simultaneously for 48, 72 and 96 hours. […] To test this, the inventors looked further into the changes of eIF5A localization when treating with TubA, GC7 or both drugs simultaneously. In FIG. 5D is shown immunofluorescence staining of 4T1 cells treated with TubA at 10 μM, GC7 at 10 μM or both drugs at those same concentrations for 48 hours. […] DAPI was used to stain the nuclei shown in the […] channel and phase-contrast images are shown as reference (FIG. 5D). […] Protein lysates were also collected at the same time point described in FIG. 5D. Twenty μg of protein for each condition was run on a Bis-Tris […] gel then transferred onto a nitrocellulose membrane before staining total protein using Ponceau S (FIG. 5E).
(§2) The CellTiter 96® AQueous One Solution (Promega) was used to perform cell proliferation experiments. Cells were plated at 5e3 cells/mL at 200 μL/well in a 96-well plate and allowed to attach overnight. Cells were then treated with indicated drugs the next day at various concentrations. After 72 hours of drug treatments, 40 μL of AQueous One solution was added to each well. Absorbance readings were measured at 490 nm wavelength at 1.5, 2 and 3 hours (absorbance is directly proportional to the number of living cells).

67NR cells = assay: as above; format: cell-based, mouse
Source text: as §1, §2

[1] = tested on: eIF5A localization in 4T1 cells; assay: Immunofluorescence, subcellular localization of total eIF5A; format: cell-based, mouse; conditions: 10 μM each drug, 48 hours
Source text: The next research questions revolved around asking how TGFβ is regulating eIF5A and what other proteins might be involved to completely block TGFβ-induced EMT. This led to histone deacetylase enzyme 6 (HDAC6). HDAC6 has been previously reported to be responsible for the deacetylation of eIF5A in the nucleus in order to make it readily available for hypusination and later transport out in the cytoplasm for functioning as a translation factor. To determine if it were possible to further increase the efficacy or potency of GC7, the inventors co-treated with Tubastatin A (an HDAC6 inhibitor) in 4T1 and 67NR cells as well as MDA-MB-468 cells which initially were not very sensitive to GC7. Triple negative human breast cancer cell line, BT547, was also used to see if another cell line representative of this breast cancer subtype was sensitive towards DHPS and HDAC6 inhibition. (FIGS. 5A and 5B). Here, are shown cell viability graphs for these four cell lines pretreated with GC7 at 1 μM and after 12 hours were exposed to various concentrations of Tubastatin A (TubA) ranging from 0.1 nM to 100 μM. […] MDA-MB-468 and BT549 cells remained to be insensitive to TubA with or without GC7 pretreatment (FIG. 5A). […]

[2] = tested on: FOXP3+ T regulatory cell populations; conditions: increasing concentrations of GC7, type 1 diabetic mice in vivo; cited from earlier work
[3] = TubA 1 μM pretreatment, GC7 0.1 nM to 1 mM

## N=C(N)NCCCCCCCN.O=S(=O)(O)O [GC7, N1-Guanyl-1,7-diaminoheptane]
4T1 cells; 72 hours, 0.1 nM→1 mM
  efficacy after GC7 treatment (cell viability): largest efficacy
4T1 cells; [3]
  change of potency of GC7 by TubA pretreatment (cell viability): subtly decreased
67NR cells; 72 hours, 0.1 nM→1 mM
  efficacy after GC7 treatment (cell viability): largest efficacy
67NR cells; [3]
  change of potency of GC7 by TubA pretreatment (cell viability): this effect was not seen in the three other cell lines
[1]
  localization of total eIF5A: predominantly cytoplasmic
[2]
  FOXP3+ T regulatory cell populations: significant reduction in FOXP3+ T regulatory cell populations
